Data as given in patent US20110144045A1, “USE OF FUMAGILLIN AND THE DERIVATIVES THEREOF TO INCREASE THE BIOAVAILABILITY OF THE MACROCYCLIC LACTONES” (INSTITUT NATIONAL DE LA RECHERCHE AGRONOMIQUE, priority 2005, published 2011).
Values belong to the compound of their own block, whether it stands above or below them.

Tests used:
murine Pgp = murine Pgp (Mus musculus, UniProt P21447); experiment: Intracellular accumulation of rhodamine 123 in Mdr1a-LLCPK1 cells (Pgp transport function); assay type: cell-based
Chain of murine Pgp (P21447 whole entry): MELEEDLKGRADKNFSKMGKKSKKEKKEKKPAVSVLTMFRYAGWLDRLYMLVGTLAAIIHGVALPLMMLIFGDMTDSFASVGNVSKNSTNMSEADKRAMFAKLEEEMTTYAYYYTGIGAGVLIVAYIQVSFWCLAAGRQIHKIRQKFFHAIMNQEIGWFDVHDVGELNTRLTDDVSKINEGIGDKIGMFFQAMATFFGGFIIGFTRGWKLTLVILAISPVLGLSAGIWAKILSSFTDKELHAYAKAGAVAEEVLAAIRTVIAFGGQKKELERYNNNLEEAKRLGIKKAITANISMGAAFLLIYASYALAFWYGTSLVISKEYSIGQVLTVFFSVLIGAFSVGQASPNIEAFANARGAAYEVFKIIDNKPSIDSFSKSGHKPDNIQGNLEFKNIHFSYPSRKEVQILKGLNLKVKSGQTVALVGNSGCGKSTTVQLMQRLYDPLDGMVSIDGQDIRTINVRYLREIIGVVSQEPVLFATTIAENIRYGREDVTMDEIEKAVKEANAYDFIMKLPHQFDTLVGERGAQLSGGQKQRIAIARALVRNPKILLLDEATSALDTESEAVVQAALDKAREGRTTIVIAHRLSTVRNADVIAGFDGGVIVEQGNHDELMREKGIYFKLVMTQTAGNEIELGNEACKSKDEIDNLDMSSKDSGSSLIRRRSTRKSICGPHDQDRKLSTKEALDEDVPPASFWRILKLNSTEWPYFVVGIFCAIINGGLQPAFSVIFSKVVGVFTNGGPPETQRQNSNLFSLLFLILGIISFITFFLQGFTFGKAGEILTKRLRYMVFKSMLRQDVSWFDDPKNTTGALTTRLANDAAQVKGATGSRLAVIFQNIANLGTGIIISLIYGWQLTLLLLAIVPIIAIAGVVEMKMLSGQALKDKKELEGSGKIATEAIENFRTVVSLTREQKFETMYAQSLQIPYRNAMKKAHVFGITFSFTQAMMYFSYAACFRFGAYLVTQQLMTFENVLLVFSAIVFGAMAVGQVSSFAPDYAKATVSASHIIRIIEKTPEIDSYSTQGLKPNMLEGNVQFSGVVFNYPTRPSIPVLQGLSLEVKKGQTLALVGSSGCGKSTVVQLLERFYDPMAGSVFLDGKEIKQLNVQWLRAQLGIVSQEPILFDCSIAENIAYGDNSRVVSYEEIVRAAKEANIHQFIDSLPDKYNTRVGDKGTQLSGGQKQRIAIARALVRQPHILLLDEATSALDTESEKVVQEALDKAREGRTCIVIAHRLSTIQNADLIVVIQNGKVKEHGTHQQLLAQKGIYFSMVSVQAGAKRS
Experimental: (§1) They are cultured for 48 hours at 37° C. to reach confluence in 1 ml of medium without G418. The medium is eliminated and the cells washed with 0.5 ml PBS 1×. […] The cells are lysed by the addition of 0.3 ml PBS 1×/0.5% sodium dodecyl sulphate (50/50, v/v) in each well. After 10 minutes at ambient temperature, 0.3 ml PBS 1× is added to each well then the total lysate (0.6 ml) is transferred to a 2-ml plastic tube and stored at −20° C. until it is analyzed by spectrofluorometry.
(§2) The results obtained were modelled according to the Hill model (Scientist software, Micromath research, Saint Louis, USA).

rat hepatocytes [1] = experiment: Intracellular quantity of 14C moxidectin in primary-cultured rat hepatocytes +/- fumagillin; assay type: cell-based
Experimental: The isolation and culturing of rat hepatocytes has been described previously (Dupuy et al., 2001b). The hepatocytes are distributed into culture dishes and kept at 37° C. for 12 hours (oven 5% CO2). The cells are cultured in the presence of 5 μM ^14C moxidectin (control) +/−100 μM fumagillin. After 0, 6, 24, 48 and 72 h the incubations are stopped (n=3 for each treatment), the media collected and the hepatocytes harvested by mechanical disassociation in phosphate buffer saline (PBS 1×). The media and the hepatocytes are stored at −20° C. until analysis by high-performance liquid chromatography (HPLC).
^14C moxidectin is quantified in the medium and the hepatocytes by a HPLC technique coupled with an in-line radioactivity detection (Dupuy et al., 2001b). This technique allows ^14C moxidectin and its main metabolite (C29 monohydroxyethyl moxidectin) in rat hepatocytes to be detected and quantified. The radioactivity is measured by liquid scintillation counting (Kontron Beta V counter). The total initial radioactivity of the initial medium at 5 μM ^14C moxidectin +/−100 μM fumagillin corresponds to the 100% value. Due to the concentration of moxidectin detected in the hepatocytes (ng.ml^−1) and to the initially introduced percentage of radioactivity, the time-concentration areas under the curve are calculated from the first to the last experimental point using the trapezoidal method (Gibaldi and Perrier, 1982).

murine Pgp (Mdr1a) = murine Pgp (Mdr1a) (Mus musculus, UniProt P21447); experiment: Intracellular accumulation of rhodamine 123 in Mdr1a-LLCPK1 cells (Pgp transport function); assay type: cell-based; conditions: mouse, probe rhodamine 123 (10 μM); Hill model; reached at 50 μM of fumagillin; read-out: maximum effect (Emax), Rho123 accumulation as percentage of the VSP effect
Chain of murine Pgp (Mdr1a) (P21447 whole entry): as above
Experimental: as §1, §2

rat hepatocytes [2] = conditions: rat hepatocytes in primary culture; Dupuy et al., 2001b; 2003; cited from earlier work

SMILES: CC[C@H](C)[C@H]1O[C@]2(CC[C@@H]1C)C[C@@H]1C[C@@H](C/C=C(\C)[C@@H](O[C@H]3C[C@H](OC)[C@@H](O[C@H]4C[C@H](OC)[C@@H](O)[C@H](C)O4)[C@H](C)O3)[C@@H](C)/C=C/C=C3\CO[C@@H]4[C@H](O)C(C)=C[C@@H](C(=O)O1)[C@]34O)O2 [IVM, ivermectin]
- effect on Rho 123 accumulation relative to the effect of VSP (murine Pgp; 5 μM IVM, Mdr1a-LLCPK1 cells, 2 h, 10 μM Rho123): 95%

- time of maximum quantity of intracellular moxidectin (rat hepatocytes [1]; rat): 6 h
- quantity of 14C moxidectin in cultured rat hepatocytes (rat hepatocytes [1]; rat, 0 h, 5 μM): 4.5 ± 1.25
- quantity of 14C moxidectin in cultured rat hepatocytes (rat hepatocytes [1]; rat, 6 h, 5 μM): 72.95 ± 9.98
- main metabolite (C29 monohydroxyethyl) as share of the parent substance (rat hepatocytes [1]; rat, 24 h, 5 μM): ≤ 4%
- quantity of 14C moxidectin in cultured rat hepatocytes (rat hepatocytes [1]; rat, 24 h, 5 μM): 52.60 ± 5.94
- quantity of 14C moxidectin in cultured rat hepatocytes (rat hepatocytes [1]; rat, 48 h, 5 μM): 22.19 ± 4.00
- quantity of 14C moxidectin in cultured rat hepatocytes (rat hepatocytes [1]; rat, 72 h, 5 μM): 11.98 ± 1.30
SMILES: CO/N=C1\C[C@]2(C[C@@H]3C[C@@H](C/C=C(\C)C[C@@H](C)/C=C/C=C4\CO[C@@H]5[C@H](O)C(C)=C[C@@H](C(=O)O3)[C@]45O)O2)O[C@H](/C(C)=C/C(C)C)[C@H]1C [Moxidectin, moxidectin]

- Rho 123 accumulation, maximum value taken as reference (murine Pgp; VSP 10 μM, considered to be the maximum value by definition): 100%
SMILES: C/C=C/C[C@@H](C)C(=O)[C@H]1C(=O)N[C@@H](C(C)C)C(=O)N(C)CC(=O)N(C)[C@@H](CC(C)C)C(=O)N[C@@H](C(C)C)C(=O)N(C)[C@@H](CC(C)C)C(=O)N[C@@H](C)C(=O)N[C@H](C)C(=O)N(C)[C@@H](CC(C)C)C(=O)N(C)[C@@H](CC(C)C)C(=O)N(C)[C@@H](C(C)C)C(=O)N1C [VSP, Valspodar]

SMILES: CO[C@@H]1[C@H](OC(=O)/C=C/C=C/C=C/C=C/C(=O)O)CC[C@]2(CO2)[C@H]1[C@@]1(C)O[C@@H]1CC=C(C)C [fumagillin]
- increase of the quantity of moxidectin in the hepatocytes (time-concentration area under the curve) (rat hepatocytes [1]; 100 μM fumagillin with 5 μM 14C moxidectin, over a period of 72 h, versus moxidectin control): 65%
- EC50 (murine Pgp; Rho123 accumulation in Mdr1a-LLCPK1, Hill model, read-out: EC50, concentration necessary to reach 50% of the maximum effect): 10 µM
- effect on the quantity of intracellular Rho 123 (murine Pgp; fumagillin 10 to 100 μM): increased
- Emax at 2 h, 50 μM (murine Pgp (Mdr1a)): 43.7%

SMILES: CC(=O)N1CCN(c2ccc(OCC3COC(Cn4ccnc4)(c4ccc(Cl)cc4Cl)O3)cc2)CC1 (stereo not drawn) [ketoconazole]
- effect on the quantity of 14C moxidectin in the hepatocytes of rats (rat hepatocytes [2]): significantly increases

SMILES: O=c1c(O)c(-c2ccc(O)c(O)c2)oc2cc(O)cc(O)c12 [quercetin]
- effect on the quantity of 14C moxidectin in the hepatocytes of rats (rat hepatocytes [2]): significantly increases
